This passage reports AC50 results from ChEMBL document CHEMBL5291721, “A preclinical secondary pharmacology resource illuminates target-adverse drug reaction associations of marketed drugs” (Nat Commun, 2023).

Some results are limits rather than exact numbers.

Test [1] has as its target Glutamate receptor ionotropic, NMDA 1 (Rattus norvegicus, UniProt P35439).
Another test concerns the target Cannabinoid receptor 1 (Homo sapiens, UniProt P21554). It is filed as functional, cell-based.
For test [2], the target named is Beta-2 adrenergic receptor (Homo sapiens, UniProt P07550).
The target in test [3] is T1, Alpha-1A adrenergic receptor (Homo sapiens, UniProt P35348).
T1 sequence (P35348 whole entry): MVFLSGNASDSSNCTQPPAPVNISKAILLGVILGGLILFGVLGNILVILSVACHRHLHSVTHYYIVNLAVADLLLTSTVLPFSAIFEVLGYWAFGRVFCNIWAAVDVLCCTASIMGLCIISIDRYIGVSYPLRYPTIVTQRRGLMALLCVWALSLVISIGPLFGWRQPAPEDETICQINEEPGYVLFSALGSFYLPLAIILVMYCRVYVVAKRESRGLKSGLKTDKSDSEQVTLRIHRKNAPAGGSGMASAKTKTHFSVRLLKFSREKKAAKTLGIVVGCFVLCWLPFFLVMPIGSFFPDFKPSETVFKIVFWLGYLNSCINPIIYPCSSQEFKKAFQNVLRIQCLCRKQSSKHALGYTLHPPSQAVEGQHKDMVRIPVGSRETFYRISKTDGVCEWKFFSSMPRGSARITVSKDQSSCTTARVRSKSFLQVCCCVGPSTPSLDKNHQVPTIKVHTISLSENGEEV
The format is functional, cell-based.

Test [4] has as its target Gamma-aminobutyric acid receptor subunit alpha-1 (Rattus norvegicus, UniProt P62813).
In test [5] the target is T2, Neuropeptide Y receptor type 1 (Homo sapiens, UniProt P25929).
T2 sequence (P25929 whole entry): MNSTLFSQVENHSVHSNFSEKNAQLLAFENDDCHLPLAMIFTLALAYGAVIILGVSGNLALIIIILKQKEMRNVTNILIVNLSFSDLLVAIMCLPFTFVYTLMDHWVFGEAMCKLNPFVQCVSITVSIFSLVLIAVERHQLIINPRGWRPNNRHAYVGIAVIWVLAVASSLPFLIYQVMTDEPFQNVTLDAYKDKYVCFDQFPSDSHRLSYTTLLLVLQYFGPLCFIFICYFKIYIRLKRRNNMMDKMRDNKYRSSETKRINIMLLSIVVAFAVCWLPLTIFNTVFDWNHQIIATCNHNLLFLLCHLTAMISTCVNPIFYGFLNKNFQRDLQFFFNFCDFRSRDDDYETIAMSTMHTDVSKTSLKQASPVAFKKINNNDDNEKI

Test [6] addresses Voltage-gated inwardly rectifying potassium channel KCNH2 (Homo sapiens, UniProt Q12809). The format is functional. Particulars: read-out: AC50.
Another test addresses Melanocortin receptor 3 (Homo sapiens, UniProt P41968).
The target in test [7] is Neuronal acetylcholine receptor subunit alpha-4 (Homo sapiens, UniProt P43681).
Test [8] addresses T3, 5-hydroxytryptamine receptor 1A (Homo sapiens, UniProt P08908).
T3 sequence (P08908 whole entry): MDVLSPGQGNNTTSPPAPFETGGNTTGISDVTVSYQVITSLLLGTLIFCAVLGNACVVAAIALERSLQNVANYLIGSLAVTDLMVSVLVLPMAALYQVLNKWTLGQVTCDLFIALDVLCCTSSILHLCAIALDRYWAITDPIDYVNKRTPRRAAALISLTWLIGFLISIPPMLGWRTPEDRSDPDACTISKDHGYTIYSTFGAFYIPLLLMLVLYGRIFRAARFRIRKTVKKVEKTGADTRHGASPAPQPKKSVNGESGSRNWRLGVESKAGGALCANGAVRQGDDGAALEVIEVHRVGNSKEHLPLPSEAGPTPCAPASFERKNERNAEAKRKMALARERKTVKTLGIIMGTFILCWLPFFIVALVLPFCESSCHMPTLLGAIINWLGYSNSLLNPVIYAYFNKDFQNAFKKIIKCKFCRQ
It is filed as functional, cell-based.
Further: assay procedure not described here.

Chain of Beta-2 adrenergic receptor (P07550 whole entry): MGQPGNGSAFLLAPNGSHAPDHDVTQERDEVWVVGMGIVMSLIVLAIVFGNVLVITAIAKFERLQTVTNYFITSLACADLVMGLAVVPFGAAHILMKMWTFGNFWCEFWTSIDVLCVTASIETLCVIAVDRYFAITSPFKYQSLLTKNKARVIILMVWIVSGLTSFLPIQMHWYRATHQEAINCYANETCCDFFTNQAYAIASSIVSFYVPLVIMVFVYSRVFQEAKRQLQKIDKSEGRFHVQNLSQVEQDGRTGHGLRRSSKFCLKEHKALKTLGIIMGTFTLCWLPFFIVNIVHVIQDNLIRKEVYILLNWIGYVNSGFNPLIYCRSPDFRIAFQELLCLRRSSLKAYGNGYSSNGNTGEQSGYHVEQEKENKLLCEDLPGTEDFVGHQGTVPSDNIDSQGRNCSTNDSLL
Chain of Melanocortin receptor 3 (P41968 whole entry): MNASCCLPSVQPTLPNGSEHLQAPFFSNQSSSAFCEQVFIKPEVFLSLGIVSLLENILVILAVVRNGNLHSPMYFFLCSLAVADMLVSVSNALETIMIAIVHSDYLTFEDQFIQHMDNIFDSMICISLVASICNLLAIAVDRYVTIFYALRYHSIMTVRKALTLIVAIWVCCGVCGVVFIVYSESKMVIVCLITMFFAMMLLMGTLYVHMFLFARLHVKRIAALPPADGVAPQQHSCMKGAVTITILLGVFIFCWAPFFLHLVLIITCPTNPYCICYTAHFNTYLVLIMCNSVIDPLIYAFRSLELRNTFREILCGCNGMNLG
Chain of Gamma-aminobutyric acid receptor subunit alpha-1 (P62813 whole entry): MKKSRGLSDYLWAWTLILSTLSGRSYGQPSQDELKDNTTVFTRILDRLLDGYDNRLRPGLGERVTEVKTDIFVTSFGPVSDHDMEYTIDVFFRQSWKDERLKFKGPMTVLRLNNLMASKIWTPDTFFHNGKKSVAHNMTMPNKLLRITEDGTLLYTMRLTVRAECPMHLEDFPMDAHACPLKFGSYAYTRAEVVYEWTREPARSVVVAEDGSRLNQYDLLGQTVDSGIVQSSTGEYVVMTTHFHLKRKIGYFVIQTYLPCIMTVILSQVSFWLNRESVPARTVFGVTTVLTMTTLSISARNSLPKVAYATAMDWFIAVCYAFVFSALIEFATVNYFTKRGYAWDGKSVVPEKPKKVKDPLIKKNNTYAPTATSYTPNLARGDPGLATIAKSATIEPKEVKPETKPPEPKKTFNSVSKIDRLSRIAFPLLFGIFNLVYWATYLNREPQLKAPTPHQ
Chain of Neuronal acetylcholine receptor subunit alpha-4 (P43681 whole entry): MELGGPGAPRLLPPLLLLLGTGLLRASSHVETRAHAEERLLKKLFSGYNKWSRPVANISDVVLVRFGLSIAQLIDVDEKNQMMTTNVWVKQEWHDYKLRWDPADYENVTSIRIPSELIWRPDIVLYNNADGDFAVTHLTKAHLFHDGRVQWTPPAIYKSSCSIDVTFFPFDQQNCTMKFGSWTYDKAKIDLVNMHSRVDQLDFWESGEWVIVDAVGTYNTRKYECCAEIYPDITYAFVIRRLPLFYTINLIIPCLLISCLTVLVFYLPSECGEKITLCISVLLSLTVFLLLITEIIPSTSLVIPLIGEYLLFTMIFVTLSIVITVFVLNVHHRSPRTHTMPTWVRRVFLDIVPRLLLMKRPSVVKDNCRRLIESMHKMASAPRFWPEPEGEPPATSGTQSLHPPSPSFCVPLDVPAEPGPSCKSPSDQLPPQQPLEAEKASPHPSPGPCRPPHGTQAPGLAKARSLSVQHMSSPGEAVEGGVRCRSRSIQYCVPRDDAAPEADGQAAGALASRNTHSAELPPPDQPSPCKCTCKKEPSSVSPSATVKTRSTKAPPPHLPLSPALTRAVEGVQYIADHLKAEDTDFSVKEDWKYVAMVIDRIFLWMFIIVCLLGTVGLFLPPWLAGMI
Chain of Voltage-gated inwardly rectifying potassium channel KCNH2 (Q12809 whole entry): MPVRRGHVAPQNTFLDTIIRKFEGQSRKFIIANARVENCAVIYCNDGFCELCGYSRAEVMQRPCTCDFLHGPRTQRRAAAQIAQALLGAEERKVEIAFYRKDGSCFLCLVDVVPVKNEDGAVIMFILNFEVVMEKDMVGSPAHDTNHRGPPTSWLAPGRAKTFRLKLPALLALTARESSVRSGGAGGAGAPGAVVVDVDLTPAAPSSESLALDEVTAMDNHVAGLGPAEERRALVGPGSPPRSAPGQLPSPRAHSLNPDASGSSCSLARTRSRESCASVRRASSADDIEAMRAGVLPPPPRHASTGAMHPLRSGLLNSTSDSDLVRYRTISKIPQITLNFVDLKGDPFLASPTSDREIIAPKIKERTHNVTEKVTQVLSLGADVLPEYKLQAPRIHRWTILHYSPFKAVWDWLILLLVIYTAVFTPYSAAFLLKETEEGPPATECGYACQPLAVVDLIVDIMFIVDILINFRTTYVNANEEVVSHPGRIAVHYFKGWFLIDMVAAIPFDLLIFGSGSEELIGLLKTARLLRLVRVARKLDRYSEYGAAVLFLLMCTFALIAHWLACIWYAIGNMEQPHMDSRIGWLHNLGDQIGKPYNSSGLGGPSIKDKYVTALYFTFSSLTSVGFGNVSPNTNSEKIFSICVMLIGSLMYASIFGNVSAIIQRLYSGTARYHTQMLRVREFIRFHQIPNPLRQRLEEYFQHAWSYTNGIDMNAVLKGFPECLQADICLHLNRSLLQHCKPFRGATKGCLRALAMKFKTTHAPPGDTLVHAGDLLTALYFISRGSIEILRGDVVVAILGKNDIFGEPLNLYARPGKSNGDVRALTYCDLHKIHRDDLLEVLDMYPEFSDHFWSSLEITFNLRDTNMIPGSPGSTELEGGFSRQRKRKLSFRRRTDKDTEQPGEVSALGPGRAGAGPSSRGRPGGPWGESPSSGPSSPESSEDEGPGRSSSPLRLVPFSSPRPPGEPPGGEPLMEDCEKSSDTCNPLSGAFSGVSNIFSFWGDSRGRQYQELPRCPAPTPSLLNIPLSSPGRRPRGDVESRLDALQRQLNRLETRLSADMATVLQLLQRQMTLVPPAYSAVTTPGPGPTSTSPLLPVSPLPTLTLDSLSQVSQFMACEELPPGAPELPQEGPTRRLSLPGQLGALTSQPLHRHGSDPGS
Chain of Cannabinoid receptor 1 (P21554 whole entry): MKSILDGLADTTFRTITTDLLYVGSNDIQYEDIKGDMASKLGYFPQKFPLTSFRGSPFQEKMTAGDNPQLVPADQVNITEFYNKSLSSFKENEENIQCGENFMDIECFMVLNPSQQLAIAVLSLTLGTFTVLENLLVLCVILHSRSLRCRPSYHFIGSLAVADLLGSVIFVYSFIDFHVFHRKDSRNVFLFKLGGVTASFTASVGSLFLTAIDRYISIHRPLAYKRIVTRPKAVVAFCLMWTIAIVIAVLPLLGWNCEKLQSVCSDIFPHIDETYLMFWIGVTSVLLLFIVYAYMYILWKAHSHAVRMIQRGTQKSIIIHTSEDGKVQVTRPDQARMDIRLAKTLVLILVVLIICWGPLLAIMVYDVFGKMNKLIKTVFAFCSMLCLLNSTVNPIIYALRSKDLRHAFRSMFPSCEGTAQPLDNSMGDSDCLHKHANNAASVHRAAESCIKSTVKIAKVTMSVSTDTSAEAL

On to `CNS(=O)(=O)Cc1ccc2[nH]cc(CCN(C)C)c2c1`, for which the concentration at half-maximal activity (AC50) was greater than 30 µM in [1]; greater than 30 µM on Cannabinoid receptor 1; greater than 10 µM in [2]; greater than 30 µM in test [3]; greater than 30 µM in test [4]; greater than 30 µM in test [5]. The AC50 (in test [6]; on Melanocortin receptor 3) was greater than 30 µM throughout.
Take `CC=CC(=O)N(CC)c1ccccc1C`: the AC50 in test [1] was greater than 10 µM; at Cannabinoid receptor 1, greater than 30 µM; in test [2] it was greater than 10 µM; in test [3] it was greater than 30 µM; in [7] it was greater than 10 µM; in [4], greater than 10 µM. Further, the AC50 was greater than 10 µM in [8], greater than 10 µM in test [5], greater than 30 µM in test [6] and greater than 10 µM at Melanocortin receptor 3.
Regarding `NCC[C@H](O)C(=O)N[C@@H]1C[C@H](N)[C@@H](O[C@H]2O[C@H](CN)[C@@H](O)[C@H](O)[C@H]2O)[C@H](O)[C@H]1O[C@H]1O[C@H](CO)[C@@H](O)[C@H](N)[C@H]1O` [AMIKACIN], the concentration at half-maximal activity (AC50) in test [1], in [2], in test [7], in test [4], in test [8] and in test [5] was greater than 10 µM throughout. Further, the results for the AC50 (in [6]; on Melanocortin receptor 3) were greater than 30 µM and greater than 10 µM, respectively.
Turning to `CCOC(=O)OC(C)OC1=C(C(=O)Nc2ccccn2)N(C)S(=O)(=O)c2ccccc21` (stereo not given) [AMPIROXICAM], the AC50 (in test [1]; at Cannabinoid receptor 1; in test [2]; in test [3]; in test [7]; in [4]) was greater than 30 µM in each case. The AC50 (in test [8]; in [5]; in [6]; on Melanocortin receptor 3) was greater than 30 µM each time.
Take `C#C[C@]1(O)CC[C@H]2[C@@H]3CCC4=Cc5oncc5C[C@]4(C)[C@H]3CC[C@@]21C` [DANAZOL]: the AC50 in test [1] is greater than 10 µM; at Cannabinoid receptor 1, greater than 30 µM; in test [2] it was greater than 10 µM; in test [3] it was greater than 30 µM; in test [7], greater than 10 µM; in test [4] it was greater than 10 µM. Moreover, the AC50 was greater than 10 µM in test [8], greater than 10 µM in test [5], greater than 30 µM in test [6] and greater than 10 µM at Melanocortin receptor 3.
As to `Cn1c(=O)c2c(ncn2CC2OCCO2)n(C)c1=O` [DOXOFYLLINE], the AC50 (in test [1]; on Cannabinoid receptor 1; in test [2]; in test [3]; in [7]; in test [4]) was greater than 30 µM each time. The AC50 (in [8]; in test [5]; in test [6]; at Melanocortin receptor 3) was greater than 30 µM each time.
Regarding `Cc1ccc(S(=O)(=O)NC(=O)NN2CC3CCCC3C2)cc1` (stereo not given) [GLICLAZIDE], the AC50 in test [1], in test [2], in test [7], in test [4], in test [8] and in test [5] was greater than 10 µM in each case. Further, the AC50 is greater than 30 µM in [6] and greater than 10 µM on Melanocortin receptor 3.
As for `CC(C)Cn1cnc2c(N)nc3ccccc3c21` [IMIQUIMOD], the AC50 in test [1], in [2], in [7], in test [4], in [8] and in [5] was greater than 10 µM throughout. Further, the AC50 in [6] was 28.3 µM; on Melanocortin receptor 3, greater than 30 µM.
Take `Nc1nc(N)nc(-c2cc(Cl)ccc2Cl)n1` [IRSOGLADINE]: the AC50 (on Cannabinoid receptor 1; in [2]; in test [3]; in test [7]; in test [8]; in test [5]) was greater than 30 µM each time. For the same compound, the AC50 (in [6]; on Melanocortin receptor 3) was greater than 30 µM each time.
As to `CNC(C)CCC=C(C)C` (stereo not given) [ISOMETHEPTENE], the AC50 (in test [2]; in test [7]; in test [5]; in [6]; at Melanocortin receptor 3) was greater than 30 µM each time.
Regarding `C[C@](N)(Cc1ccc(O)c(O)c1)C(=O)O` [METHYLDOPA], the AC50 in [1], in test [2], in [7], in [4], in test [8] and in test [5] was greater than 10 µM in each case. The AC50 in [6] was greater than 30 µM; at Melanocortin receptor 3, greater than 10 µM.
Regarding `O=C(NCCN1CCOCC1)c1ccc(Cl)cc1` [MOCLOBEMIDE], the AC50 in test [1], in test [2], in test [7], in test [4], in [8] and in test [5] was greater than 10 µM in each case. Besides, the AC50 in [6] is greater than 30 µM; on Melanocortin receptor 3, greater than 10 µM.
As for `CCCN(CCC)C(=O)C(CCC(=O)O)NC(=O)c1ccccc1` (stereo not given) [PROGLUMIDE], the AC50 in [1] was greater than 10 µM; in [2], greater than 30 µM; in test [7] it was greater than 30 µM; in [4], greater than 10 µM; in test [8], greater than 10 µM; in test [5], greater than 30 µM. In addition, the AC50 (in [6]; on Melanocortin receptor 3) was greater than 30 µM in each case.
For the compound `C[C@]12CC[C@H]3[C@@H](CCC4=CC(=O)CC[C@@]43C)[C@@H]1CC[C@@H]2O` [TESTOSTERONE], the AC50 in [1], in [2], in test [7], in test [4], in test [8] and in test [5] was greater than 10 µM throughout. At Melanocortin receptor 3, this compound yielded an AC50 greater than 10 µM.
Turning to `CN1C(=O)OC(C)(C)C1=O` [TRIMETHADIONE], the AC50 in [1] is greater than 10 µM; at Cannabinoid receptor 1, greater than 30 µM; in test [2], greater than 10 µM; in test [7] it was greater than 10 µM; in [4] it was greater than 10 µM; in [8] it was greater than 10 µM. For the same compound, the AC50 in test [5] was greater than 10 µM; in [6], greater than 30 µM; on Melanocortin receptor 3 it was greater than 10 µM.
With `CC(=O)O[C@H]1C[C@@H]2CC[C@@H]3[C@H](CC[C@@]4(C)[C@H]3C[C@H]([N+]3(C)CCCCC3)[C@@H]4OC(C)=O)[C@@]2(C)C[C@@H]1N1CCCCC1` [VECURONIUM], the AC50 (in test [1]; on Cannabinoid receptor 1; in [2]; in [3]; in test [7]; in test [4]) was greater than 30 µM each time. Besides, the concentration at half-maximal activity (AC50) in test [8] was greater than 30 µM; in [5], greater than 30 µM; in test [6], 10.4 µM; at Melanocortin receptor 3, greater than 30 µM.
